Measured values reported in the RepoRT retention time repository (doi:10.1016/j.chroma.2015.11.014).

Assay: RP, Agilent ZORBAX Eclipse Plus C18, 150 × 2.1 mm, 3.5 µm, 40 °C, 0.3 mL/min, estimated dead time 1.1 min; A: water + 0.1% formic acid; B: acetonitrile + 0.1% formic acid; gradient (min/%B) 0/2 1/2 2/20 16.5/98 22/98
Details: stereoisomer not certain

Compound | LC retention time
CCCCCCCC[P+](CCCCCCCC)(CCCCCCCC)CCCCCCCC | 16.4 min
O=C1CC2(CCCCC2)C(=O)N1 | 7.4 min
NC(=O)N1c2ccccc2C=Cc2cc(O)ccc21 | 7.48 min
Cc1cc(NS(=O)(=O)c2ccc(NO)cc2)no1 | 6.77 min
CC(C)NCC(O)COc1cccc2ccccc12 (stereo unspecified) | 7.36 min
COc1cc(NS(=O)(=O)c2ccc(N)cc2)nc(OC)n1 | 8.09 min
Nc1nc(NC2CC2)c2ncn(C3C=CC(CO)C3)c2n1 (stereo unspecified) | 5.09 min
NC(=O)N1c2ccccc2CC(=O)c2ccccc21 | 8.32 min
CN(C)CC(c1ccc(O)cc1)C1(O)CCCCC1 (stereo unspecified) | 5.37 min
COc1cc(N)nc(OC)n1 | 4.66 min
NC(=O)c1ccc[n+](C2OC(COP(=O)(O)OP(=O)([O-])OCC3OC(n4cnc5c(N)ncnc54)C(O)C3O)C(O)C2O)c1 (stereo unspecified) | 2.09 min
COC(=O)Nc1nc2ccc(S(=O)c3ccccc3)cc2[nH]1 (stereo unspecified) | 6.58 min
O=C(O)c1ccccc1 | 7.56 min
O=C(O)c1c2ccccc2nc2ccccc12 | 4.66 min
O=c1[nH]sc2ccccc12 | 6.23 min
CN(C)N=Nc1nc[nH]c1C(N)=O | 4.47 min
Cn1c(N)nc2nc[nH]c2c1=O | 2.34 min
O=C(NO)c1ccccc1 | 4.89 min
CC(C)(C)NCC(O)c1ccc(O)c(CO)c1 (stereo unspecified) | 4.69 min
O=C(NC1CCCCC1)NC1CCCCC1 | 10.8 min
Oc1cccc2n[nH]nc12 | 5.34 min
CCCCCCCCC=CCCCCCCCC[N+](C)(C)C | 13.7 min
CSc1nc(NC(C)C)nc(NC(C)C)n1 | 9.53 min
NC(=O)N1c2ccccc2C2OC2c2ccccc21 (stereo unspecified) | 7.59 min

Compound | LC retention time
CC(C)(C)P(C(C)(C)C)C(C)(C)C | 5.22 min
CCOP(=O)(OCC)OCC | 7.41 min
COC(=O)CCCCCCCCC(=O)OC1CC(C)(C)N(C)C(C)(C)C1 | 8.34 min
Cc1ncc(CO)c(CO)c1O | 2.11 min
Cc1c(O)c(=O)n(-c2ccccc2)n1C | 6.83 min
CC(N)c1nc2ccccc2s1 (stereo unspecified) | 5.16 min
CC(=O)C1(O)CCC2C3CCC4=CC(=O)CCC4(C)C3CCC21C (stereo unspecified) | 11.8 min
CC(C)NC(=O)NS(=O)(=O)c1cnccc1Nc1cccc(CO)c1 | 5.82 min
COC(=O)CCCC[P+](c1ccccc1)(c1ccccc1)c1ccccc1 | 8.3 min
CN(Cc1cnc2nc(N)nc(N)c2n1)c1ccc(C(=O)NC(CCC(=O)O)C(=O)O)cc1 (stereo unspecified) | 4.98 min
Cc1c(N(C)C)c(=O)n(-c2ccccc2)n1C | 4.71 min
COc1ccc2c3c1OC1C(OC(C)=O)C=CC4C(C2)N(C)CCC341 (stereo unspecified) | 6.21 min
C#CC1(O)CCC2C3CCC4=CC(=O)CCC4(C)C3CCC21C (stereo unspecified) | 11.7 min
CC(=O)Nc1ccc(O)cc1 | 5.02 min
CCCCCCCCCCCCCCN(C)C | 11.4 min
CC12CCC3C(CC=C4CC(O)CCC43C)C1CCC2=O (stereo unspecified) | 11.6 min
Cc1cc(OCCOCC[N+](C)(C)Cc2ccccc2)ccc1C(C)(C)CC(C)(C)C | 12.3 min
c1ccc2[nH]c(-c3cscn3)nc2c1 | 5.2 min
CCC(CC)COC(=O)C(C)NP(=O)(OCC1OC(C#N)(c2ccc3c(N)ncnn23)C(O)C1O)Oc1ccccc1 (stereo unspecified) | 9.97 min
CSc1nc(N)nc2nc[nH]c12 | 4.91 min
CC(=O)OC1(C(C)=O)CCC2C3CC(C)C4=CC(=O)CCC4(C)C3CCC21C (stereo unspecified) | 13.7 min
O=P(O)(O)Cc1ccccc1 | 5.04 min
CCOP(=S)(OCC)Oc1cc(C)nc(C(C)C)n1 | 14.5 min
COCC(=O)N(c1c(C)cccc1C)C(C)C(=O)OC (stereo unspecified) | 10.2 min

Compound | LC retention time
Cn1c(=O)[nH]c2ncn(C)c2c1=O | 5.06 min
COC(=O)c1ccc(CNS(C)(=O)=O)cc1S(=O)(=O)NC(=O)Nc1nc(OC)cc(OC)n1 | 10 min
COc1ccc2cc(C(C)C(=O)O)ccc2c1 (stereo unspecified) | 10.9 min
COC(=O)C[P+](c1ccccc1)(c1ccccc1)c1ccccc1 | 7.72 min
CCCCCCCCCCCCCC[N+](C)(C)C | 11.5 min
COc1cccc(C2(O)CCCCC2CN(C)C)c1 (stereo unspecified) | 6.21 min
CCCCP(=O)(O)O | 4.77 min
C#CC[P+](c1ccccc1)(c1ccccc1)c1ccccc1 | 7.93 min
CC(C)Cc1ccc(C(C)C(=O)O)cc1 (stereo unspecified) | 12.8 min
CCCCCCC[N+](CCCCCCC)(CCCCCCC)CCCCCCC | 14.7 min
Cc1cn(C2CC(O)C(CO)O2)c(=O)[nH]c1=O (stereo unspecified) | 4.53 min
COc1cccc(OC)c1OC | 9.03 min
CC(C)(C)CC(C)(C)c1ccc(OCCOCC[N+](C)(C)Cc2ccccc2)cc1 | 11.5 min
CCCCCCCCCCCCCC[P+](CCCCCC)(CCCCCC)CCCCCC | 17.1 min
COC(=O)C(Cc1ccccc1)NC(=O)C(N)CC(=O)O (stereo unspecified) | 5.76 min
C=C(OCC)[P+](c1ccccc1)(c1ccccc1)c1ccccc1 | 9.3 min
CNCC1CCCCC1(O)c1cccc(OC)c1 (stereo unspecified) | 6.25 min
COc1ccc(C(=O)c2ccc(OC)cc2O)c(O)c1 | 12.7 min
c1ccc(C[P+](c2ccccc2)(c2ccccc2)c2ccccc2)cc1 | 8.71 min
CCCCOP(=O)(O)OCCCC | 8.01 min
CC(=O)CCCCn1c(=O)c2c(ncn2C)n(C)c1=O | 6.77 min
CC(=O)Nc1ccc(OC2OC(C(=O)O)C(O)C(O)C2O)cc1 (stereo unspecified) | 4.58 min
CC(C)NCC(O)c1ccc(NS(C)(=O)=O)cc1 (stereo unspecified) | 4.58 min
CC1CC2C(C(O)CC3(C)C2CCC3(O)C(=O)CO)C2(C)C=CC(=O)C=C12 (stereo unspecified) | 9.02 min

Compound | LC retention time
CN(C)CCC=C1c2ccccc2COc2ccccc21 | 7.45 min
Nc1ccc(S(=O)(=O)Nc2ccccn2)cc1 | 5.55 min
O=c1[nH]c2ccccc2s1 | 7.78 min
c1ccc2sc(N3CCOCC3)nc2c1 | 9.36 min
CC(C)c1ccccc1OP(=O)(Oc1ccccc1)Oc1ccccc1 | 15.8 min
CC12CCC3c4ccc(O)cc4CCC3C1CCC2=O (stereo unspecified) | 11.2 min
CN(CC=CC#CC(C)(C)C(=O)O)Cc1cccc2ccccc12 | 7.45 min
c1ccc(CNCc2ccccc2)cc1 | 6 min
CCOP(=S)(OCC)Oc1ccc([N+](=O)[O-])cc1 | 14.1 min
O=S(=O)([O-])CCCC[P+](c1ccccc1)(c1ccccc1)c1ccccc1 | 7.14 min
NC(=O)c1ccccc1 | 5.64 min
CCOCCOC(=O)Nc1ccc(C)cc1 | 10.8 min
COC(=O)Nc1cccc(N)c1C | 4.42 min
Cc1cccc(C(=O)O)c1 | 8.59 min
Nc1nc(NC2CC2)c2ncn(C3C=CC(C(=O)O)C3)c2n1 (stereo unspecified) | 5.19 min
Oc1ccccc1-c1nc2ccccc2[nH]1 | 6.22 min
O=C1NC(=O)C(c2ccccc2)(c2ccc(O)cc2)N1 (stereo unspecified) | 7.26 min
Cc1cccc(N(C)C(=S)Oc2ccc3ccccc3c2)c1 | 15.5 min
Cn1cnc([N+](=O)[O-])c1Sc1ncnc2nc[nH]c12 | 5.37 min
NCCCCC(NC(CCc1ccccc1)C(=O)O)C(=O)N1CCCC1C(=O)O (stereo unspecified) | 5.18 min
CNCCC(Oc1cccc2ccccc12)c1cccs1 (stereo unspecified) | 8.43 min
NC(Cc1ccc(O)cc1)C(=O)O (stereo unspecified) | 2.61 min
CC(=O)Nc1cccc(O)c1 | 5.68 min
O=C(c1ccccc1)c1ccc2n1CCC2C(=O)O (stereo unspecified) | 9.5 min
